Source: patent publication US20140276107A1, “PHOTODYNAMIC DIAGNOSIS” (Photocure ASA, priority 2011, published 2014)

Tests used:
[1] = tested on: dysplastic tissue in Barrett's esophagus; conditions: cited from earlier work
[2] = tested on: normal and Barrett's tissue of the esophagus; test: Spectrofluorimetry (LIFS) of PpIX fluorescence intensity in the esophagus of patients suffering from Barrett's esophagus; assay type: in vivo, human; conditions: for porphyrin (PpIX) fluorescence in normal tissue compared to Barrett's tissue: ALA 20 mg/kg orally 4-5 hours before endoscopy (5 subjects), HAL 8 mM solution by local instillation 2 hours before endoscopy (3 subjects)
Description: Spectrofluorimetry (LIFS) measurements (fluorescence intensity of PpIX in the esophagus) were carried out on 8 patients suffering from Barrett's esophagus. The measurements were carried out after oral administration of 5-ALA (ALA) or local instillation of 5-ALA hexyl ester (HAL) and the fluorescence intensity of normal and Barrett's tissue was compared.
LIFS was carried out using the Karl Storz D-light system. Abnormal cells could be clearly delineated against normal tissue due to the porphyrin fluorescence resulting from an accumulation of the ALA or HAL in the abnormal tissue. For this purpose, blue light of a specific spectral composition was introduced into the body via an endoscopic light guide system. • Patient group 1: 5 subjects each received 20 mg/kg body weight ALA orally, 4-5 hours before endoscopy. • Patient group 2: 3 subjects each received a 8 mM solution of HAL in an aqueous buffer by local instillation (100 mg in 50 mL, i.e. 0.2%), 2 hours before endoscopy.

Structure (SMILES)	distinction of high-grade dysplastic from non-dysplastic epithelial tissue ([1]; Brand et al. 2002)	detection of high-grade intraepithelial neoplasia and adenocarcinoma ([1]; Stepinac et al. 2003)	detection of low-grade neoplastic tissue ([1]; Stepinac et al. 2003)	specificity for detection of dysplastic tissue ([1]; systemic application of 5-ALA at 20 mg/kg and 30 mg/kg, high rate of false positive fluorescence)	porphyrin (PpIX) fluorescence in normal tissue compared to Barrett's tissue ([2]; FIG. 1)	intensity of fluorescence in the normal epithelium, HAL versus ALA ([2]; FIG. 1, normal epithelium, HAL 8 mM local instillation vs ALA 20 mg/kg orally)	fluorescence intensity of PpIX in the Barrett and normal mucosa ([2]; FIG. 2, one of the patients receiving HAL)	intensity of fluorescence in the normal and Barrett epithelium, HAL compared to ALA ([2]; normal and Barrett epithelium, background fluorescence)
NCC(=O)CCC(=O)O [ALA, 5-aminolevulinic acid]	can distinguish	effective	not accurate	poor	significantly higher in normal tissue compared to Barrett's tissue			
CCCCCCOC(=O)CCC(=O)CN [HAL, 5-ALA hexyl ester]					significantly higher in normal tissue compared to Barrett's tissue	lower	stronger intensity for the normal mucosa	lower intensity of fluorescence
